Experimental data taken from patent US20260283924A1, “TOPICAL COMPOSITIONS FOR PROMOTING HAIR GROWTH” (ESTETRA SRL, priority 2023, published 2026).

Columns and labels:
[1] = tested on: human anagen VI scalp HFs; experiment: LDH release into the medium (cytotoxicity), healthy donor hair follicle organ culture; assay type: cell-based; details: all tested concentrations (300 nM, 3 μM, 30 μM)
Description: (§1) 12-44 full-length frontotemporal hair follicles (HF) were obtained from four healthy human female donors >50 years old. […] Donor 2:29; Donor 3:44; Donor 4:32). After microdissection from skin as described in the art (Edelkamp et al., Methods Mol Biol, 2020, 2154:105-119; and Langan et al., Exp Dermatol, 2015 December; 24(12):903-1), HFs were placed in adequate culture medium and allowed a 24 h rest period to allow them to recover from the trauma of microdissection. Test substance (either vehicle (0.3% EtOH) or E4 at concentrations of 30 μM, 3 μM or 300 nM) was added to the medium at the end of the 24 h. Total culturing time was 5-9 days depending on the stage of the HFs in the vehicle group. The experimental design for a 6-days HF organ culture experiment is depicted in FIG. 9.
LDH is released from the cytoplasm of damaged cells into the culture medium. Therefore, the cytotoxicity of agents can be estimated based on the activity of LDH present in the culture medium using a colorimetric assay (Cytotoxicity Detection Kit [LDH], Roche) as described (Gherardini et al Int J Cosmet Sci, 2019 April; 41(2):164-182). The measurements were performed on supernatants collected on days respective to each culture and normalized to blank.
For the maximum release, HFs were treated with 1% Triton X 100 in vehicle medium at 37° C. for 30 minutes in order to induce maximum LDH release into the medium.

[2] = tested on: human anagen VI scalp HFs (healthy female donors); experiment: Healthy female donor hair follicle organ culture (ex vivo model), Example 7; assay type: cell-based; details: for hair shaft production: vs vehicle
Description: as §1
This model allows to assess if E4 treatment is able to prolong anagen and/or to delay catagen initiation in healthy female subjects. Clinically, hair loss is associated with a reduction of HFs in anagen or with a shortening of anagen duration. Promoting anagen might thus limit hair loss. The following parameters were investigated:
To determine the HF length, each HF was measured from the end of the bulb connective tissue sheath to the end of the distal outer root sheath (ORS), using a digital light microscope at 50× magnification (VHX 900 Keyence Corporation, Osaka, Japan) and the affiliated software (Edelkamp et al., Methods Mol Biol, 2020, 2154:105-119; and Langan et al., Exp Dermatol, 2015 December; 24(12):903-1). Measurements were obtained at baseline, after 24 h rest period and subsequently every 24-48 h during the entire duration of the experiment. Elongation is expressed as millimeters of growth and/or as percentage elongation from the baseline measurement.
Hair cycle staging and calculation of hair cycle score is indicative of hair cycle progression and anagen-catagen transition (Langan et al., Exp Dermatol, 2015). Hair cycle staging and hair cycle scoring was performed at the end of the culture. The hair cycle stage of each HF was determined according to several established macroscopic and microscopic parameters (Langan et al Exp Dermatol, 2015). Microscopic hair cycle staging was determined using Ki-67/TUNEL immunohistology and Masson-Fontana histochemistry. Hair cycle staging was analyzed by calculating the percentage of HFs in each hair cycle stage. Hair cycle score was determined by giving an arbitrary score to each hair cycle stage as following: anagen: 100, early catagen: 200, mid catagen: 300, late catagen: 400, dystrophic 500.
Germinative hair matrix keratinocytes proliferate mostly during anagen. […] Apoptosis of hair matrix keratinocytes is used as an additional indicator of anagen/catagen transition.
Proliferation was assessed by quantification of the percentage of hair matrix keratinocytes in a clearly specified area (germinative hair matrix keratinocytes, below the Auber's line) that were positive for the proliferation marker Ki67, whereas apoptosis was assessed using TUNEL (TdT-mediated dUTP-biotin nick-end labelling) immunofluorescence in the same keratinocyte population (below the Auber's line) and in the precortical hair matrix keratincoytes (above the Auber's line) (Langan et al., Exp Dermatol 2015) (FIG. 11).
Alkaline phosphatase is an indicator of DP inductivity (Yang, J Dermatol Sci, 2010 January; 57(1):2-11). Alkaline phosphatase in situ activity was measured in the DP.
Versican, a large chondroitin sulfate proteoglycan molecule, is expressed in DP in anagen HFs and diminishes in catagen HFs and its expression correlates with hair inductive properties (Yang, J Dermatol Sci 2010). Versican intensity was analyzed in the DP.
CD34 is a marker expressed by the progeny of HF bulge stem cells. It is expressed in the most external layer of the outer root sheet (ORS) below the isthmus (sub-bulge to suprabulbar regions) (Purba et al., BioEssays, 2014 May; 36(5):513-25). […]

[3] = tested on: occipital hair follicles (healthy donor); experiment: Healthy donor hair follicle organ culture (ex vivo model), Example 8; assay type: cell-based, human; details: for K15 expression in the suprabulbar outer root sheath / number of cells (K15) in the suprabulbar outer root sheath: 300 nM; for density of cells in the dermal cup of anagen HFs / density of cells in the dermal papilla / density of cells in the dermal papilla stalk / hair matrix keratinocyte proliferation / total number of cells in the dermal cup of anagen HFs / total number of cells in the dermal papilla / total number of cells in the dermal papilla stalk: 3 μM
Description: In brief, 24 full-length occipital hair follicles (HF) were obtained from one healthy donor. […] Test substance (either vehicle (0.03% EtOH), E2 at concentration of 300 nM or E4 at concentrations of 3 μM or 300 nM) was added to the medium at the end of the 24 h. Total culturing time was 5 days depending on the stage of the HFs in the vehicle group. The experimental design is depicted in FIG. 23.

[4] = 300 nM and 30 μM, tendentially vs vehicle
[5] = 300 nM, 3 μM, 30 μM, listed as Estetrol
[6] = 3 μM, significantly vs vehicle, listed as estetrol
[7] = 300 nM and 3 μM, listed as Estetrol

`C[C@]12CC[C@@H]3c4ccc(O)cc4CC[C@H]3[C@@H]1[C@@H](O)[C@@H](O)[C@@H]2O` [Formulation E4, 1,3,5 (10)-estratrien-3,15alpha,16alpha,17beta-tetrol] was tested, and the “HF cytotoxicity (LDH release into the medium)” value [1] was “did not induce HF cytotoxicity”, the “HF cytotoxicity (LDH release into the medium)” value ([1]; listed as Estetrol) was “does not induce LDH release into the medium” and the “total number of cells in the DP stalk” value ([2]; 300 nM and 3 μM) was “significantly reduced the total number of cells in the DP stalk”. The “hair matrix keratinocytes proliferation (Ki-67)” value [2, 4] was “increased hair matrix keratinocytes proliferation”, the “microscopic hair cycle staging: anagen” value [2, 4] was “prolonged anagen” and the “percentage of CD34 positive cells, suprabulbar ORS” value [2, 4] was “increased the percentage of CD34 positive cells”. The “microscopic hair cycle staging: anagen” value ([2]; 300 nM and 30 μM, tendentially vs vehicle, listed as estetrol) was “maintain longer HFs in anagen”, the “density of cells in the inductive dermal cup” value ([2]; 300 nM, 3 μM, 30 μM) was “no significant impact on the density of cells in the inductive dermal cup” and the “hair matrix keratinocytes apoptosis (TUNEL)” value ([2]; 300 nM, 3 μM, 30 μM) was “without affecting hair matrix keratinocytes apoptosis”. For the same compound, the “percentage of K15 positive cells, suprabulbar ORS” value ([2]; 300 nM, 3 μM, 30 μM) was “did not have any effect on the percentage of K15 positive cells”, the “hair matrix keratinocytes apoptosis (TUNEL)” value [2, 5] was “apoptosis was not affected” and the hair shaft production ([2]; 300 nM, 3 μM, 30 μM) was “did not modify hair shaft production”. The hair shaft production [2, 5] was “does not impact hair shaft production”, the “proliferation of K15 positive cells (Ki-67), suprabulbar ORS” value ([2]; 300 nM, significantly vs vehicle) was “decreased their proliferation” and the “percentage of K15 positive cells, bulge basal layer” value ([2]; 3 μM) was “significantly decreased the percentage of K15 positive cells”. For the same compound, the “proliferation of K15 positive cells (Ki-67), bulge basal layer” value ([2]; 3 μM and 300 nM, tendentially vs vehicle) was “increased their proliferation”, the “hair matrix keratinocytes proliferation (Ki-67)” value ([2]; 3 μM, significantly vs vehicle) was “increased hair matrix keratinocytes proliferation” and the “microscopic hair cycle staging: anagen” value ([2]; 3 μM, significantly vs vehicle) was “prolonged anagen”. For the same compound, the “percentage of CD34 positive cells, suprabulbar ORS” value ([2]; 3 μM, significantly vs vehicle) was “increased the percentage of CD34 positive cells”, the “hair matrix keratinocytes proliferation (Ki-67)” value [2, 6] was “increases hair matrix keratinocytes proliferation” and the “microscopic hair cycle staging: anagen” value [2, 6] was “maintain longer HFs in anagen”. The “proliferation of K15 positive cells (Ki-67), suprabulbar ORS” value ([2]; 3 μM, tendentially vs vehicle) was “decreased their proliferation”, the “proliferation of K15 positive cells (Ki-67), bulge basal layer” value ([2]; 30 μM, significantly vs vehicle) was “increased their proliferation” and the “density of cells in the DP stalk” value ([2]; all concentrations) was “tendentially decreased the density of cells”. The “alkaline phosphatase activity in DP cells” value ([2]; all tested concentrations) was “tendentially increased”, the “density of cells in the DP” value ([2]; all tested concentrations) was “did not strikingly affect the density of cells in the DP” and the “versican expression in DP cells” value ([2]; all tested concentrations) was “tendentially increased versican expression”. For the same compound, the “K15 expression in the suprabulbar outer root sheath” value [3] was “tendentially increased”, the “number of cells (K15) in the suprabulbar outer root sheath” value [3] was “tendentially increased” and the “area of the dermal papilla” value ([3]; 300 nM and 3 μM) was “increased”. For the same compound, the “hair shaft production (reduction vs vehicle)” value ([3]; 300 nM and 3 μM) was “tendentially”, the “microscopic hair cycle: anagen” value ([3]; 300 nM and 3 μM) was “maintained HFs in anagen” and the “number of CD34+ cells in the suprabulbar outer root sheath” value ([3]; 300 nM and 3 μM) was “decreased”. The “area of the dermal papilla” value [3, 7] was “increases the area”, the “microscopic hair cycle: anagen” value [3, 7] was “maintain hair follicles in anagen” and the “number of CD34+ cells in the suprabulbar outer root sheath” value [3, 7] was “decreases the number of CD34+ cells”. For the same compound, the “K15 expression in the suprabulbar outer root sheath” value ([3]; listed as estetrol) was “tendentially increase K15 expression”, the “number of cells (K15) in the suprabulbar outer root sheath” value ([3]; listed as estetrol) was “tendentially increase” and the “density of cells in the dermal cup of anagen HFs” value [3] was “significantly decreased”. For the same compound, the “density of cells in the dermal papilla” value [3] was “tendentially decreased”, the “density of cells in the dermal papilla stalk” value [3] was “decreased” and the “hair matrix keratinocyte proliferation” value [3] was “tendentially increased”. For the same compound, the “total number of cells in the dermal cup of anagen HFs” value [3] was “significantly decreased”, the “total number of cells in the dermal papilla” value [3] was “tendentially decreased” and the “total number of cells in the dermal papilla stalk” value [3] was “decreased”. For the same compound, the “microscopic hair cycle: anagen maintenance” value ([3]; 3 μM compared with 300 nM) was “even more prominently”, the “density of cells in the dermal cup of anagen HFs” value ([3]; listed as Estetrol) was “significantly decreases” and the “density of cells in the dermal papilla” value ([3]; listed as Estetrol) was “tendentially decreases”. The “density of cells in the dermal papilla stalk” value ([3]; listed as Estetrol) was “decreases the density of cells in the dermal papilla stalk”, the “hair matrix keratinocyte proliferation” value ([3]; listed as Estetrol) was “increased” and the “total number of cells in the dermal cup of anagen HFs” value ([3]; listed as Estetrol) was “significantly decreases”. The “total number of cells in the dermal papilla” value ([3]; listed as Estetrol) was “tendentially decreases” and the “total number of cells in the dermal papilla stalk” value ([3]; listed as Estetrol) was “tendentially”.
